Measurements from ChEMBL document CHEMBL3822373, “An evolved oxazolidinone with selective potency against Mycobacterium tuberculosis and gram positive bacteria” (2016).
Converted amounts (≈) assume the structure as drawn. The source made the active and inactive calls. The rule behind the calls is not given here.

What was measured:
Acinetobacter baumannii [1] = experiment: Antibacterial activity against Acinetobacter baumannii 6M-1b measured after 18 hrs by broth microdilution assay; format: functional
Acinetobacter baumannii [2] = experiment: Antibacterial activity against Acinetobacter baumannii ATCC 19606 measured after 18 hrs by broth microdilution assay; format: functional; conditions: ATCC 19606, 18 h
Acinetobacter baumannii [3] = experiment: Antibacterial activity against Acinetobacter baumannii ACBA measured after 18 hrs by broth microdilution assay; format: functional
Enterobacter cloacae = experiment: Antibacterial activity against Enterobacter cloacae ATCC 13047 measured after 18 hrs by broth microdilution assay; format: functional; conditions: ATCC 13047, 18 h
Klebsiella pneumoniae = experiment: Antibacterial activity against Klebsiella pneumoniae ATCC 35657 measured after 18 hrs by broth microdilution assay; format: functional; conditions: ATCC 35657, 18 h
Pseudomonas aeruginosa = experiment: Antibacterial activity against Pseudomonas aeruginosa PA14 measured after 18 hrs by broth microdilution assay; format: functional; conditions: PA14, 18 h
Staphylococcus aureus [4] = experiment: Antibacterial activity against […] Staphylococcus aureus ATCC 29213 measured after 18 hrs by broth microdilution assay; format: functional; conditions: ATCC 29213, 18 h
Enterococcus faecalis [5] = experiment: Antibacterial activity against Enterococcus faecalis ATCC 19433 measured after 18 hrs by broth microdilution assay; format: functional; conditions: ATCC 19433, 18 h
[6] = tested on: Mycobacterium tuberculosis; experiment: Antibacterial activity against […] Mycobacterium tuberculosis H37Rv measured after 14 days by broth microdilution assay; format: functional; conditions: 336 h
[7] = tested on: Mycobacterium tuberculosis; experiment: Antibacterial activity against Mycobacterium tuberculosis 115R measured after 14 days by broth microdilution assay; format: functional; conditions: 336 h
[8] = tested on: Mycobacterium tuberculosis; experiment: Antibacterial activity against Mycobacterium tuberculosis 124R measured after 14 days by broth microdilution assay; format: functional; conditions: 336 h
[9] = tested on: Mycobacteroides abscessus; experiment: Antibacterial activity against Mycobacterium abscessus ATCC 19977 measured after 3 days by broth microdilution assay; format: functional; conditions: ATCC 19977, 72 h
Mycobacterium avium = experiment: Antibacterial activity against Mycobacterium avium 104 measured after 7 days by broth microdilution assay; format: functional; conditions: Mycobacterium avium, 104, 168 h
[10] = tested on: Mycobacterium tuberculosis; experiment: Bactericidal activity against Mycobacterium tuberculosis H37Rv measured after 21 days by broth microdilution assay; format: functional; conditions: 504 h, read-out: MBC99.9
Enterococcus faecalis [11] = experiment: Bactericidal activity against Enterococcus faecalis ATCC 19433 up to 8 times MIC90 measured after 2 days by broth microdilution assay; format: functional
Staphylococcus aureus [12] = experiment: Bactericidal activity against Staphylococcus aureus ATCC 29213 up to 8 times MIC90 measured after 2 days by broth microdilution assay; format: functional, organism-based
Enterococcus faecalis [13] = experiment: Bacteriostatic activity against Enterococcus faecalis ATCC 19433 assessed as prevention of spontaneous resistant mutant selection up to 60 times MIC90 measured after 5 weeks; format: functional
Staphylococcus aureus [14] = experiment: Bacteriostatic activity against […] Staphylococcus aureus ATCC 29213 assessed as prevention of spontaneous resistant mutant selection up to 60 times MIC90 measured after 5 weeks; format: functional, organism-based
Enterococcus faecalis [15] = experiment: Potentiation of biapenem-induced antibacterial activity against Enterococcus faecalis ATCC 19433 at <0.5 times MIC90 by checkboard titration assay; format: functional
Enterococcus faecalis [16] = experiment: Potentiation of faropenem-induced antibacterial activity against Enterococcus faecalis ATCC 19433 at <0.5 times MIC90 by checkboard titration assay; format: functional
Enterococcus faecalis [17] = experiment: Potentiation of tabipenem-induced antibacterial activity against Enterococcus faecalis ATCC 19433 at <0.5 times MIC90 by checkboard titration assay; format: functional
Staphylococcus aureus [18] = experiment: Potentiation of biapenem-induced antibacterial activity against Staphylococcus aureus ATCC 29213 at <0.5 times MIC90 by checkboard titration assay; format: functional, organism-based
Staphylococcus aureus [19] = experiment: Potentiation of faropenem-induced antibacterial activity against Staphylococcus aureus ATCC 29213 at <0.5 times MIC90 by checkboard titration assay; format: functional, organism-based
Staphylococcus aureus [20] = experiment: Potentiation of tabipenem-induced antibacterial activity against Staphylococcus aureus ATCC 29213 at <0.5 times MIC90 by checkboard titration assay; format: functional, organism-based
[21] = tested on: Mycobacterium tuberculosis; experiment: Potentiation of isoniazid-induced antibacterial activity against Mycobacterium tuberculosis H37Rv by checkboard titration assay; format: functional, organism-based
[22] = tested on: Mycobacterium tuberculosis; experiment: Potentiation of rifampicin-induced antibacterial activity against Mycobacterium tuberculosis H37Rv by checkboard titration assay; format: functional, organism-based
[23] = tested on: Mycobacterium tuberculosis; experiment: Antibacterial activity against Mycobacterium tuberculosis; format: functional

Compound | MIC90 (Acinetobacter baumannii [1]) [µg/mL] | MIC90 (Acinetobacter baumannii [2]) [µg/mL] | MIC90 (Acinetobacter baumannii [3]) [µg/mL] | MIC90 (Enterobacter cloacae) [µg/mL] | MIC90 (Klebsiella pneumoniae) [µg/mL] | MIC90 (Pseudomonas aeruginosa) [µg/mL] | MIC90 (Staphylococcus aureus [4]) [µg/mL] | MIC90 (Enterococcus faecalis [5]) [µg/mL] | MIC90 [6] [µg/mL] | MIC90 [7] [µg/mL] | MIC90 [8] [µg/mL] | MIC90 [23] [µg/mL] | other results
CC(=O)NC[C@H]1CN(c2ccc3c(c2)Oc2ccccc2O3)C(=O)O1 | 0.25 (≈ 0.735 µM) | 32 (≈ 94 µM) | > 64 | > 64 | > 64 | > 64 | 0.5 (≈ 1.47 µM) | 0.25 (≈ 0.735 µM) | 0.5 (≈ 1.47 µM) | 0.5 (≈ 1.47 µM) | 0.5 (≈ 1.47 µM) | – | MIC90 [9]: > 64 µg/mL; MIC90 (Mycobacterium avium): > 64 µg/mL; MBC [10]: 2 µg/mL (≈ 5.88 µM); Activity (Enterococcus faecalis [11]): inactive; Activity (Staphylococcus aureus [12]): inactive; Activity (Enterococcus faecalis [13]): Active; Activity (Staphylococcus aureus [14]): Active; Activity (Enterococcus faecalis [15]): inactive; Activity (Enterococcus faecalis [16]): inactive; Activity (Enterococcus faecalis [17]): inactive; Activity (Staphylococcus aureus [18]): inactive; Activity (Staphylococcus aureus [19]): inactive; Activity (Staphylococcus aureus [20]): inactive; Activity [21]: inactive; Activity [22]: inactive
C[C@@H](O)[C@H]1C(=O)N2C(C(=O)[O-])=C(SC3Cn4cnc[n+]4C3)[C@H](C)[C@H]12 (stereo partly specified) [BIAPENEM] | – | – | – | – | – | – | 0.007 (≈ 0.02 µM) | 0.25 (≈ 0.713 µM) | – | – | – | 2.5 (≈ 7.13 µM) | –
C[C@@H](O)[C@H]1C(=O)N2C(C(=O)O)=C([C@H]3CCCO3)S[C@H]12 [FAROPENEM] | – | – | – | – | – | – | 0.015 (≈ 0.0526 µM) | 0.25 (≈ 0.876 µM) | – | – | – | 2.5 (≈ 8.76 µM) | –
CC(=O)NC[C@H]1CN(c2ccc(N3CCOCC3)c(F)c2)C(=O)O1 [LINEZOLID] | 0.25 (≈ 0.741 µM) | > 64 | > 64 | > 64 | 16 (≈ 47.4 µM) | > 64 | 1 (≈ 2.96 µM) | 1 (≈ 2.96 µM) | 0.2 (≈ 0.593 µM) | 0.25 (≈ 0.741 µM) | 0.25 (≈ 0.741 µM) | – | –
C[C@@H](O)[C@H]1C(=O)N2C(C(=O)O)=C(S[C@@H]3CN[C@H](C(=O)N(C)C)C3)[C@H](C)[C@H]12 [MEROPENEM] | 1 (≈ 2.61 µM) | > 64 | > 64 | 0.13 (≈ 0.339 µM) | < 0.06 | 0.25 (≈ 0.652 µM) | 0.06 (≈ 0.156 µM) | 4 (≈ 10.4 µM) | 4 (≈ 10.4 µM) | 8 (≈ 20.9 µM) | 8 (≈ 20.9 µM) | – | MIC90 [9]: > 64 µg/mL; MIC90 (Mycobacterium avium): > 64 µg/mL
CO[C@H]1/C=C/O[C@@]2(C)Oc3c(C)c(O)c4c(O)c(c(/C=N/N5CCN(C)CC5)c(O)c4c3C2=O)NC(=O)/C(C)=C\C=C\[C@H](C)[C@H](O)[C@@H](C)[C@@H](O)[C@@H](C)[C@H](OC(C)=O)[C@@H]1C [RIFAMPIN] | – | – | – | – | – | – | – | – | – | 4 (≈ 4.86 µM) | 128 (≈ 156 µM) | – | –
C[C@@H](O)[C@H]1C(=O)N2C(C(=O)O)=C(SC3CN(C4=NCCS4)C3)[C@H](C)[C@H]12 [TEBIPENEM] | – | – | – | – | – | – | 0.03 (≈ 0.0782 µM) | 0.25 (≈ 0.652 µM) | – | – | – | 1.25 (≈ 3.26 µM) | –
